In PubChem BioAssay AID1259407 (Chemical Carcinogenesis Research Information System (CCRIS), 2018):
The source made the active and inactive calls. How the calls were made is not given here.

Test system: CCRIS mutagenicity, Ames/micronucleus/aberration tests
Test: CCRIS mutagenicity studies

`CC(C)(OO)c1ccccc1` was tested, and the mutagenic call (Test System: AMES SALMONELLA TYPHIMURIUM, Strain/Indicator: TA97A, Metabolic Activation: RAT LIVER S-9, AROCLOR 1254, Method: PREINCUBATION) was “active; positive”, the mutagenic call (Test System: AMES SALMONELLA TYPHIMURIUM, Strain/Indicator: TA98, Metabolic Activation: NONE, Method: FLUCTUATION (MICROTITER)) was “active; positive” and the mutagenic call (Test System: AMES SALMONELLA TYPHIMURIUM, Strain/Indicator: TA98, Metabolic Activation: RAT LIVER S-9, AROCLOR 1254, Method: FLUCTUATION (MICROTITER)) was “inactive; negative”. For the same molecule, the mutagenic call (Test System: AMES SALMONELLA TYPHIMURIUM, Strain/Indicator: TA104, Metabolic Activation: RAT LIVER S-9, AROCLOR 1254, Method: PREINCUBATION) was “active; positive”, the mutagenic call (Test System: AMES SALMONELLA TYPHIMURIUM, Strain/Indicator: TA1537, Metabolic Activation: NONE, Method: FLUCTUATION (MICROTITER)) was “active; positive” and the mutagenic call (Test System: AMES SALMONELLA TYPHIMURIUM, Strain/Indicator: TA1537, Metabolic Activation: RAT LIVER S-9, AROCLOR 1254, Method: FLUCTUATION (MICROTITER) was “active; positive”. The mutagenic call (Test System: AMES SALMONELLA TYPHIMURIUM, Strain/Indicator: TA2638A, Metabolic Activation: NONE, Method: STANDARD PLATE) was “active; positive”, the mutagenic call (Test System: AMES SALMONELLA TYPHIMURIUM, Strain/Indicator: TA7001, Metabolic Activation: NONE, Method: FLUCTUATION (MICROTITER)) was “inactive; negative” and the mutagenic call (Test System: AMES SALMONELLA TYPHIMURIUM, Strain/Indicator: TA7001, Metabolic Activation: RAT LIVER S-9, AROCLOR 1254, Method: FLUCTUATION (MICROTITER)) was “active; positive”. The mutagenic call (Test System: AMES SALMONELLA TYPHIMURIUM, Strain/Indicator: TA7002, Metabolic Activation: NONE, Method: FLUCTUATION (MICROTITER)) was “active; positive”, the mutagenic call (Test System: AMES SALMONELLA TYPHIMURIUM, Strain/Indicator: TA7002, Metabolic Activation: RAT LIVER S-9, AROCLOR 1254, Method: FLUCTUATION (MICROTITER)) was “inactive; negative” and the mutagenic call (Test System: AMES SALMONELLA TYPHIMURIUM, Strain/Indicator: TA7003, Metabolic Activation: NONE, Method: FLUCTUATION (MICROTITER)) was “inactive; negative”. For the same molecule, the mutagenic call (Test System: AMES SALMONELLA TYPHIMURIUM, Strain/Indicator: TA7003, Metabolic Activation: RAT LIVER S-9, AROCLOR 1254, Method: FLUCTUATION (MICROTITER)) was “inactive; negative”, the mutagenic call (Test System: AMES SALMONELLA TYPHIMURIUM, Strain/Indicator: TA7004, Metabolic Activation: NONE, Method: FLUCTUATION (MICROTITER)) was “active; positive” and the mutagenic call (Test System: AMES SALMONELLA TYPHIMURIUM, Strain/Indicator: TA7004, Metabolic Activation: RAT LIVER S-9, AROCLOR 1254, Method: FLUCTUATION (MICROTITER)) was “active; positive”. The mutagenic call (Test System: AMES SALMONELLA TYPHIMURIUM, Strain/Indicator: TA7005, Metabolic Activation: NONE, Method: FLUCTUATION (MICROTITER)) was “active; positive”, the mutagenic call (Test System: AMES SALMONELLA TYPHIMURIUM, Strain/Indicator: TA7005, Metabolic Activation: RAT LIVER S-9, AROCLOR 1254, Method: FLUCTUATION (MICROTITER)) was “active; positive” and the mutagenic call (Test System: AMES SALMONELLA TYPHIMURIUM, Strain/Indicator: TA7006, Metabolic Activation: NONE, Method: FLUCTUATION (MICROTITER)) was “active; positive”. For the same molecule, the mutagenic call (Test System: AMES SALMONELLA TYPHIMURIUM, Strain/Indicator: TA7006, Metabolic Activation: RAT LIVER S-9, AROCLOR 1254, Method: FLUCTUATION (MICROTITER)) was “active; positive”, the mutagenic call (Test System: E. COLI, Strain/Indicator: WP2 (PKM101), Metabolic Activation: NONE, Method: STANDARD PLATE) was “active; positive” and the mutagenic call (Test System: E. COLI, Strain/Indicator: WP2 UVRA (PKM101), Metabolic Activation: NONE, Method: STANDARD PLATE) was “active; positive”.

For `CCc1ccnc2ccccc12`, the mutagenic call (Test System: AMES SALMONELLA TYPHIMURIUM, Strain/Indicator: TA100, Metabolic Activation: RAT, LIVER, S-9, Method: PREINCUBATION) was “inactive; negative”.

`Nc1nc(N)nc(-c2ccc([N+](=O)[O-])o2)n1` was tested, and the mutagenic call (Test System: AMES SALMONELLA TYPHIMURIUM, Strain/Indicator: TA100, Metabolic Activation: RAT, LIVER, S-9, KC500 OR PHENOBARBITAL, Method: LIQUID SUSPENSION) was “active; positive”.

`Nc1cccc2c1Cc1ccccc1-2` was tested, and the mutagenic call (Test System: AMES SALMONELLA TYPHIMURIUM, Strain/Indicator: TA98, Metabolic Activation: RAT, LIVER, S-9, AROCLOR 1254 (2 OR 4%), Method: STANDARD PLATE) was “active; positive”, the mutagenic call (Test System: AMES SALMONELLA TYPHIMURIUM, Strain/Indicator: TA100, Metabolic Activation: RAT, LIVER, S-9, AROCLOR 1254 (4%), Method: STANDARD PLATE) was “active; positive” and the mutagenic call (Test System: AMES SALMONELLA TYPHIMURIUM, Strain/Indicator: TA1535, Metabolic Activation: RAT, LIVER, S-9, AROCLOR 1254 (4%), Method: STANDARD PLATE) was “inactive; negative”. For the same molecule, the mutagenic call (Test System: AMES SALMONELLA TYPHIMURIUM, Strain/Indicator: TA1537, Metabolic Activation: RAT, LIVER, S-9, AROCLOR 1254 (4%), Method: STANDARD PLATE) was “active; positive”.

`Nc1nc(N)c(-c2ccccc2)s1` was tested, and the mutagenic call (Test System: MOUSE LYMPHOMA, Strain/Indicator: L5178Y (TK+/TK-), Metabolic Activation: NONE, Method: SUSPENSION/PLATE) was “active; positive. reevaluation of results: inconclusive” and the mutagenic call (Test System: MOUSE LYMPHOMA, Strain/Indicator: L5178Y (TK+/TK-), Metabolic Activation: RAT, LIVER, S-9, AROCLOR 1254, Method: SUSPENSION/PLATE) was “active; positive. reevaluation of results: inconclusive”.
